Like-named read-outs stand apart in the source and are kept apart here.
Experiments:
Type in all cases: cell-based
[1] = system: doxorubicin-resistant human colon adenocarcinoma subline (LoVo/DX); experiment: cells; conditions: for IC50: LoVo/DX, 72 h, read-out: IC50 LoVo/DX; for RI (resistance index): RI = IC50 LoVo/DX / IC50 LoVo; for SI LoVo/DX: SI = IC50 BALB/3T3 / IC50 LoVo/DX
Source text: (§1) The BALB/3T3 cell line was purchased from the American Type Culture Collection (ATCC, Manassas, VA, USA), A549 and MCF-7 cell lines—from European Collection of Authenticated Cell Cultures (Salisbury, UK). The LoVo cell line was purchased from the American Type Culture Collection (ATCC, Manassas, VA, USA), and LoVo/DX by courtesy of Prof. E. Borowski (Technical University of Gdańsk, Gdańsk, Poland). All the cell lines are maintained in the Institute of Immunology and Experimental Therapy (IIET), Wroclaw, Poland. The human lung adenocarcinoma cell line was cultured in a mixture of OptiMEM and RPMI 1640 (1:1) medium (IIET, Wroclaw, Poland), supplemented with 5% foetal bovine serum (GE Healthcare, Logan UT, USA) and 2 mM L-glutamine (Sigma-Aldrich, Merck KGaA, Saint Louis, MO, USA). Human breast adenocarcinoma cell line was cultured in mixture of Eagle’s medium (IIET, Wroclaw, Poland), supplemented with 10% fetal bovine serum, 2 mM L-glutamine, 8 μg/mL insulin, and 1% amino-acids (Sigma-Aldrich, Merck KGaA, Saint Louis, MO, USA). […] Murine embryonic fibroblast cells were cultured in Dulbecco medium (Life Technologies Limited, Paisley, UK), supplemented with 10% foetal bovine serum (GE Healthcare, Logan, UT, USA) and 2 mM glutamine (Sigma-Aldrich, Merck KGaA, Saint Louis, MO, USA). All culture media contained antibiotics: 100 U/mL penicillin and 100 μg/mL streptomycin (Polfa–Tarchomin, Warsaw, Poland). All cell lines were cultured during the entire experiment in a humid atmosphere at 37 °C and 5% CO2. […] The procedure was repeated every year or in the case of less frequently used lines: after thawing.
(§2) Twenty-four h before adding the tested compounds, all cell lines were seeded in 96-well plates (Sarstedt, Nümbrecht, Germany) in appropriate media with 10^4 cells per well. All cell lines were exposed to each tested agent at four different concentrations in the range 100–0.01 μg/mL for 72 h. […] Additionally, all cell lines were exposed to DMSO (solvent used for tested compounds) (POCh, Gliwice, Poland) at concentrations corresponding to these present in tested agents’ dilutions. After 72 h sulforhodamine B assay (SRB) was performed.
(§3) After 72 h of incubation with the tested compounds, cells were fixed in situ by gently adding 50 μL per well of cold 50% trichloroacetic acid TCA (POCh, Gliwice, Poland) and were incubated at 4 °C for one hour. Following, wells were washed four times with water and air dried. Next, 50 μL of 0.1% solution of sulforhodamine B (Sigma-Aldrich, Merck KGaA, Saint Louis, MO, USA) in 1% acetic acid (POCh, Gliwice, Poland) were added to each well and plates were incubated at room temperature for 0.5 h. After incubation time, unbound dye was removed by washing plates four times with 1% acetic acid whereas stain bound to cells was solubilized with 10 mM Tris base (Sigma-Aldrich, Merck KGaA, Saint Louis, MO, USA). Absorbance of each solution was read at Synergy H4 Hybrid Multi-Mode Microplate Reader (BioTek Instruments, Inc., Winooski, VT, USA) at the 540 nm wavelength.
(§4) IC50 values were calculated in Cheburator 0.4, Dmitry Nevozhay software (version 1.2.0 software by Dmitry Nevozhay, 2004–2014, http://www.cheburator.nevozhay.com, freely available) for each experiment. Compounds at each concentration were tested in triplicates in single experiment and each experiment was repeated at least three times independently. The Resistance Index (RI) was defined as the ratio of IC50 for a given compound calculated for resistant cell line to that measured for its parental drug sensitive cell line (Table 1).

[2] = system: human breast adenocarcinoma (MCF-7); experiment: cells; conditions: for IC50: read-out: IC50 MCF-7; for SI MCF-7: SI = IC50 BALB/3T3 / IC50 MCF-7
Source text: as §1, §2, §3, §4

[3] = system: human colon adenocarcinoma cell line (LoVo); experiment: cells; conditions: for IC50: LoVo, 72 h, read-out: IC50 LoVo; for SI LoVo: SI = IC50 BALB/3T3 / IC50 LoVo
Source text: as §1, §2, §3, §4

[4] = system: human lung adenocarcinoma (A549); experiment: cells; conditions: for IC50: A549, 72 h, read-out: IC50 A549; for SI A549: SI = IC50 BALB/3T3 / IC50 A549
Source text: as §1, §2, §3, §4

[5] = system: normal murine embryonic fibroblast cell line (BALB/3T3); experiment: Antiproliferative SRB assay, 72 h, normal cells BALB/3T3; conditions: BALB/3T3, 72 h, mean ± SD
Source text: as §1, §2, §3, §4

Row | Compound | IC50 ([1]; Homo sapiens) [nM] | RI (resistance index) [1] | SI LoVo/DX [1] | IC50 ([2]; Homo sapiens, MCF7, 72 h) [nM] | SI MCF-7 [2] | IC50 ([3]; Homo sapiens) [nM] | IC50 ([4]; Homo sapiens) [nM] | IC50 ([5]; Mus musculus) [nM] | SI LoVo [3] | SI A549 [4] | IC50 ([1]; SRB, mean ± SD) [nM] | IC50 ([2]; MCF-7, 72 h, SRB, mean ± SD) [nM] | IC50 ([3]; SRB, mean ± SD) [nM] | IC50 ([4]; SRB, mean ± SD) [nM] | IC50 [5] [nM] | IC50 ([1]; Homo sapiens, SRB, mean ± SD) [nM] | IC50 ([4]; Homo sapiens, SRB, mean ± SD) [nM]
1 | COc1c(Br)c2c(c(OC)c1OC)-c1ccc(SC)c(=O)cc1[C@@H](NC(=O)OCC(F)(F)F)CC2 [Compound 8] | 74 ± 7 | 4.11 | 1.86 | 55 ± 26 | 2.51 | 18 ± 10 | 30 ± 21 | 138 ± 10 | – | – | – | – | – | – | – | – | –
2 | COc1c(Br)c2c(c(OC)c1OC)-c1ccc(SC)c(=O)cc1[C@@H](NC(=O)OCCOCCO)CC2 [Compound 12] | 4240 ± 1330 | 15.09 | 0.03 | 125 ± 15 | 1.08 | 281 ± 185 | 93 ± 14 | 135 ± 15 | 0.48 | – | – | – | – | – | – | – | –
3 | CCCCOC(=O)N[C@H]1CCc2c(Br)c(OC)c(OC)c(OC)c2-c2ccc(SC)c(=O)cc21 [Compound 11] | 91 ± 9 | – | 1.60 | 125 ± 14 | 1.17 | 62 ± 13 | 95 ± 5 | 146 ± 14 | 2.35 | 1.54 | – | – | – | – | – | – | –
4 | COc1c(Br)c2c(c(OC)c1OC)-c1ccc(SC)c(=O)cc1[C@@H](N)CC2 [Compound 4, 4-bromo-N-deacetylthiocolchicine] | 700 ± 88 | 5.60 | 1.80 | 178 ± 20 | 7.08 | 125 ± 44 | 115 ± 7 | 1260 ± 796 | 10.08 | – | – | – | – | – | – | – | –
5 | COc1c(Br)c2c(c(OC)c1OC)-c1ccc(SC)c(=O)cc1[C@@H](NC(=O)OCCO)CC2 [Compound 5] | 1010 ± 20 | 13.65 | 0.10 | 57 ± 11 | 1.82 | 74 ± 19 | 74 ± 9 | 104 ± 43 | 1.41 | 1.41 | – | – | – | – | – | – | –
6 | CCOC(=O)N[C@H]1CCc2c(Br)c(OC)c(OC)c(OC)c2-c2ccc(SC)c(=O)cc21 [Compound 7] | 71 ± 10 | 6.45 | 1.44 | 18 ± 2 | 5.67 | 11 ± 4 | 12 ± 4 | 102 ± 63 | – | – | – | – | – | – | – | – | –
7 | CCCOC(=O)N[C@H]1CCc2c(Br)c(OC)c(OC)c(OC)c2-c2ccc(SC)c(=O)cc21 [Compound 9] | 72 ± 11 | 6.55 | 1.61 | 27 ± 7 | 4.30 | 11 ± 0.1 | 12 ± 4 | 116 ± 9 | – | – | – | – | – | – | – | – | –
8 | COc1c(Br)c2c(c(OC)c1OC)-c1ccc(SC)c(=O)cc1[C@@H](NC(C)=O)CC2 [Compound 3, 4-bromothiocolchicine] | 135 ± 12 | 9.64 | 0.76 | 15 ± 2 | 6.87 | 14 ± 4 | 10 ± 0.1 | 103 ± 89 | 7.36 | 10.3 | – | – | – | – | – | – | –
9 | COC(=O)N[C@H]1CCc2c(Br)c(OC)c(OC)c(OC)c2-c2ccc(SC)c(=O)cc21 [Compound 6] | 50 ± 10 | – | – | – | – | 7 ± 2 | 10 ± 0.1 | 66 ± 31 | – | – | – | – | – | – | – | – | –
10 | N.N.[Cl][Pt][Cl] [Cisplatin, reference compound] | – | 1.3 | 0.68 | – | 0.36 | – | – | – | 0.89 | 0.61 | 5700 ± 630 | 10700 ± 753 | 4370 ± 730 | 6370 ± 1410 | 3900 ± 1500 | – | –
11 | COc1c(Br)c2c(c(OC)c1OC)-c1ccc(OC)c(=O)cc1[C@@H](NC(C)=O)CC2 [Compound 2, 4-bromocolchicine] | 1550 ± 170 | 18.45 | 0.09 | 27 ± 8 | 5.26 | 84 ± 21 | 105 ± 8 | 142 ± 73 | 1.69 | 1.35 | – | – | – | – | – | – | –
12 | COc1c(Br)c2c(c(OC)c1OC)-c1ccc(SC)c(=O)cc1[C@@H](NC(=O)OC(C)C)CC2 [Compound 10] | 89 ± 26 | – | 1.94 | 132 ± 17 | 1.31 | 54 ± 17 | 89 ± 20 | 173 ± 108 | 3.20 | 1.94 | – | – | – | – | – | – | –
13 | COc1cccc2c1C(=O)c1c(O)c3c(c(O)c1C2=O)C[C@@](O)(C(=O)CO)C[C@@H]3O[C@H]1C[C@H](N)[C@H](O)[C@H](C)O1 [Doxorubicin, reference compound] | – | – | – | – | – | – | – | 166 ± 74 | – | – | – | – | – | – | – | 4750 ± 990 | 258 ± 44
